Legend:
Test in all cases: IHC of tumor biopsies, H-score change on-treatment vs pretreatment
Type in all cases: in vivo, human
cytoplasmic p-ERK = system: cytoplasmic p-ERK
Experimental: (§1) Pharmacodynamic markers were examined using peripheral blood samples, tumor and nevi biopsies (when available) and tumor imaging. BRAF mutation status was determined by Sanger sequencing. Pharmacodynamic markers analyzed, in available tumor/nevus samples obtained before treatment or archival tissue and during treatment on cycle 1, day 8 or day 15, including cytoplasmic p‐MEK, p‐ERK, BIM, c‐KIT, p‐AKT473, pS6 and PTEN, and nuclear p‐ERK, Ki‐67, PARP, cyclin D1, MITF, p27, and p53. Biomarker expression was determined by calculating the percentage of change in the H‐score (14) between on‐treatment and fresh/archival pretreatment specimens. Blood levels of VEGFR‐2 and were assessed before and at multiple time points while on treatment using enzyme‐linked immunosorbent assay (ELISA). […] Changes in standard uptake value (SUV) were determined by a blinded, independent central imaging review panel. Complete metabolic response (CMR) was complete resolution of tumor FDG‐PET uptake so SUV is the same as background. Partial metabolic response (PMR) decrease in sum of the tumor SUV of ≥25% from the baseline scan. Progressive metabolic disease (PMD) was defined as an increase in tumor SUV of ≥25% from the baseline scan, or the appearance of new FDG‐PET uptake in metastatic lesions. Stable metabolic disease (SMD) was defined as a change in tumor SUV between the PMR and PMD criteria.

nuclear p-ERK = system: nuclear p-ERK
Experimental: as §1

p53 = system: p53
Experimental: as §1

PTEN = system: PTEN
Experimental: as §1

pS6 = system: pS6
Experimental: as §1

BIM = system: BIM
Experimental: as §1

Cn1c(Nc2ccc(C(F)(F)F)cc2)nc2cc(Oc3ccnc(-c4ncc(C(F)(F)F)[nH]4)c3)ccc21 [RAF265]
cytoplasmic pERK % change vs pretreatment, Median (cytoplasmic p-ERK; All patients, n 13): -11.8% | cytoplasmic pERK % change vs pretreatment, Mean (SD) (cytoplasmic p-ERK; DL 5, n 2): +27.1 (56) % | cytoplasmic pERK % change vs pretreatment, Median (cytoplasmic p-ERK; DL 5, n 2): +27.1% | cytoplasmic pERK % change vs pretreatment, Mean (SD) (cytoplasmic p-ERK; DL 6, n 5): -27.0 (40.9) % | cytoplasmic pERK % change vs pretreatment, Median (cytoplasmic p-ERK; DL 6, n 5): -50.00% | cytoplasmic pERK % change vs pretreatment, Mean (SD) (cytoplasmic p-ERK; DLs 1 - 4, n 2): +52.3 (80) % | cytoplasmic pERK % change vs pretreatment, Median (cytoplasmic p-ERK; DLs 1 - 4, n 2): +52.3% | cytoplasmic pERK % change vs pretreatment, Mean (SD) (cytoplasmic p-ERK; DLs 7 and 7.1, n 4): -17.8 (11.5) % | cytoplasmic pERK % change vs pretreatment, Median (cytoplasmic p-ERK; DLs 7 and 7.1, n 4): -13.5% | p-ERK expression change (cytoplasmic p-ERK; patients treated at DL1-5): increase in p‐ERK expression | p-ERK abundance change (cytoplasmic p-ERK; patients treated at DL 6-7.1): moderately decreased p‐ERK abundance | nuclear pERK % change vs pretreatment, Mean (SD) (nuclear p-ERK; All patients, n 21): -2 (51.6) % | nuclear pERK % change vs pretreatment, Median (nuclear p-ERK; All patients, n 21): 0% | nuclear pERK % change vs pretreatment, Mean (SD) (nuclear p-ERK; DL 5, n 2): +18.2 (35.8) % | nuclear pERK % change vs pretreatment, Median (nuclear p-ERK; DL 5, n 2): +18.2% | nuclear pERK % change vs pretreatment, Mean (SD) (nuclear p-ERK; DL 6, n 5): -41.8 (48) % | nuclear pERK % change vs pretreatment, Median (nuclear p-ERK; DL 6, n 5): -22.2% | nuclear pERK % change vs pretreatment, Mean (SD) (nuclear p-ERK; DLs 1 - 4, n 10): +21.1 (52.13) % | nuclear pERK % change vs pretreatment, Median (nuclear p-ERK; DLs 1 - 4, n 10): 0% | nuclear pERK % change vs pretreatment, Mean (SD) (nuclear p-ERK; DLs 7 and 7.1, n 4): -20.3 (31.3) % | nuclear pERK % change vs pretreatment, Median (nuclear p-ERK; DLs 7 and 7.1, n 4): -7.6% | P53 % change vs pretreatment, Mean (SD) (p53; All patients, n 20): +42.14 (195.033) % | P53 % change vs pretreatment, Mean (SD) (p53; DL 5, n 2): +82.33(190.5) % | P53 % change vs pretreatment, Median (p53; DL 5, n 2): +82.4% | P53 % change vs pretreatment, Mean (SD) (p53; DL 6, n 4): +49.32 (123.273) % | P53 % change vs pretreatment, Median (p53; DL 6, n 4): -3.8% | P53 % change vs pretreatment, Mean (SD) (p53; DLs 1 - 4, n 10): -27.30 (49.484) % | P53 % change vs pretreatment, Median (p53; DLs 1 - 4, n 10): -29.2% | P53 % change vs pretreatment, Mean (SD) (p53; DLs 7 and 7.1, n 4): +188.5 (400.62) % | P53 % change vs pretreatment, Median (p53; DLs 7 and 7.1, n 4): 0% | PTEN % change vs pretreatment, Mean (SD) (PTEN; All patients, n 18): -3.16 (32.4) % | PTEN % change vs pretreatment, Median (PTEN; All patients, n 18): 0% | PTEN % change vs pretreatment, Mean (SD) (PTEN; DL 5, n 2): 0% | PTEN % change vs pretreatment, Median (PTEN; DL 5, n 2): 0% | PTEN % change vs pretreatment, Mean (SD) (PTEN; DL 6, n 5): -9.4 (27) % | PTEN % change vs pretreatment, Median (PTEN; DL 6, n 5): 0% | PTEN % change vs pretreatment, Mean (SD) (PTEN; DLs 1 - 4, n 8): -5 (44.1) % | PTEN % change vs pretreatment, Median (PTEN; DLs 1 - 4, n 8): -7.4% | PTEN % change vs pretreatment, Mean (SD) (PTEN; DLs 7 and 7.1, n 3): 10 (17.3) % | PTEN % change vs pretreatment, Median (PTEN; DLs 7 and 7.1, n 3): 0% | PS6 % change vs pretreatment, Mean (SD) (pS6; All patients, n 19): +6.9 (70.8) % | PS6 % change vs pretreatment, Median (pS6; All patients, n 19): -13% | PS6 % change vs pretreatment, Mean (SD) (pS6; DL 5, n 1): +255.6% | PS6 % change vs pretreatment, Median (pS6; DL 5, n 1): +255.6% | pS6, median decrease (pS6; DL 6): 35.8% | PS6 % change vs pretreatment, Mean (SD) (pS6; DL 6, n 6): -20.6 (29.1) % | PS6 % change vs pretreatment, Median (pS6; DL 6, n 6): -35.8% | PS6 % change vs pretreatment, Mean (SD) (pS6; DLs 1 - 4, n 8): -16.8 (20.9) % | PS6 % change vs pretreatment, Median (pS6; DLs 1 - 4, n 8): -18.9% | PS6 % change vs pretreatment, Mean (SD) (pS6; DLs 7 and 7.1, n 4): 33.4 (55.7) % | PS6 % change vs pretreatment, Median (pS6; DLs 7 and 7.1, n 4): +16.3% | BIM % change vs pretreatment, Mean (SD) (BIM; All patients, n 14): -17.00 (54.5) % | BIM % change vs pretreatment, Median (BIM; All patients, n 14): 0% | BIM % change vs pretreatment, Mean (SD) (BIM; DL 5, n 1): -100% | BIM % change vs pretreatment, Median (BIM; DL 5, n 1): -100% | BIM % change vs pretreatment, Mean (SD) (BIM; DL 6, n 2): -7.1 (11.1) % | BIM % change vs pretreatment, Median (BIM; DL 6, n 2): -7.1% | BIM % change vs pretreatment, Mean (SD) (BIM; DLs 1 - 4, n 8): -18 (65.1) % | BIM % change vs pretreatment, Median (BIM; DLs 1 - 4, n 8): -14.3% | BIM % change vs pretreatment, Mean (SD) (BIM; DLs 7 and 7.1, n 3): +6.7 (5.8) % | BIM % change vs pretreatment, Median (BIM; DLs 7 and 7.1, n 3): +10%

Source: paper PMC5548886 (Cancer Medicine, 2017)
